Test results as given in ChEMBL document CHEMBL5247680, “Design, Synthesis, and Biological Activity of Thioguanine-Modified Pleuromutilin Derivatives” (ACS Med Chem Lett, 2023).
Values after ≈ are worked out from the molar mass of the structure shown.

Tests used:
[1] = test system: Staphylococcus aureus; experiment: Antibacterial activity against Methicillin-resistant Staphylococcus aureus ATCC 33591 assessed as bacterial growth inhibition incubated for 20 to 24 hrs by microbroth serial dilution assay; assay type: functional; conditions: time 20-24 hrs
[2] = test system: Staphylococcus aureus; experiment: Antibacterial activity against Methicillin-resistant Staphylococcus aureus ATCC 43300 assessed as bacterial growth inhibition incubated for 20 to 24 hrs by microbroth serial dilution assay; assay type: functional; conditions: time 20-24 hrs
[3] = test system: Staphylococcus epidermidis; experiment: Antibacterial activity against Methicillin-resistant Staphylococcus epidermidis ATCC 51625 assessed as bacterial growth inhibition incubated for 20 to 24 hrs by microbroth serial dilution assay; assay type: functional; conditions: time 20-24 hrs
[4] = test system: Staphylococcus epidermidis; experiment: Antibacterial activity against Methicillin-sensitive Staphylococcus epidermidis ATCC 12228 assessed as bacterial growth inhibition incubated for 20 to 24 hrs by microbroth serial dilution assay; assay type: functional; conditions: time 20-24 hrs
[5] = test system: Staphylococcus aureus; experiment: Antibacterial activity against Staphylococcus aureus ATCC 25923 assessed as bacterial growth inhibition incubated for 20 to 24 hrs by microbroth serial dilution assay; assay type: functional; conditions: time 20-24 hrs
[6] = test system: Staphylococcus epidermidis; experiment: Selectivity ratio of MBC for antibacterial activity against Methicillin-sensitive Staphylococcus epidermidis […] to MIC for antibacterial activity against Methicillin-sensitive Staphylococcus epidermidis […]; assay type: functional
[7] = test system: Staphylococcus aureus; experiment: Selectivity ratio of MBC for antibacterial activity against Staphylococcus aureus to MIC for antibacterial activity against Staphylococcus aureus; assay type: functional
[8] = test system: Staphylococcus aureus; experiment: Antibacterial activity against Methicillin-sensitive Staphylococcus aureus ATCC 29213 assessed as bacterial growth inhibition incubated for 20 to 24 hrs by microbroth serial dilution assay
[9] = test system: Staphylococcus aureus; experiment: Selectivity ratio of MBC for antibacterial activity against Methicillin-sensitive Staphylococcus aureus ATCC 29213 to MIC for antibacterial activity against Methicillin-sensitive Staphylococcus aureus ATCC 29213
[10] = test system: Staphylococcus epidermidis; experiment: Selectivity ratio of MBC for antibacterial activity against Methicillin-resistant Staphylococcus epidermidis ATCC 51625 to MIC for antibacterial activity against Methicillin-resistant Staphylococcus epidermidis ATCC 51625; assay type: functional

Structure (SMILES) | MIC [1] | MIC [2] | MIC [3] | MIC [4] | MIC [5] | Ratio [6] | Ratio [7] | MIC [8] | Ratio [9] | Ratio [10]
C=C[C@]1(C)C[C@@H](OC(=O)CSc2nc(N)nc3c2ncn3C(=O)c2ccc(C)cc2)[C@@]2(C)C3C(=O)CC[C@@]3(CC[C@H]2C)[C@@H](C)[C@@H]1O (stereo not given in full) | 0.125 µg/mL (≈ 0.194 µM) | 0.25 µg/mL (≈ 0.387 µM) | 0.125 µg/mL (≈ 0.194 µM) | 0.0078 µg/mL (≈ 0.0121 µM) | 0.125 µg/mL (≈ 0.194 µM) | >4 | >4 | 0.125 µg/mL (≈ 0.194 µM) |  | 
C=C[C@]1(C)C[C@@H](OC(=O)CSc2nc(NC(=O)CNC3CCOCC3)nc3[nH]cnc23)[C@@]2(C)C3C(=O)CC[C@@]3(CC[C@H]2C)[C@@H](C)[C@@H]1O (stereo not given in full) | 0.5 µg/mL (≈ 0.748 µM) | 16 µg/mL (≈ 23.9 µM) | 1 µg/mL (≈ 1.5 µM) | 2 µg/mL (≈ 2.99 µM) | 0.5 µg/mL (≈ 0.748 µM) | >4 | >4 | 8 µg/mL (≈ 12 µM) |  | 
C=C[C@]1(C)C[C@@H](OC(=O)CSc2nc(N)nc3c2ncn3C(=O)NCc2ccc(C)cc2)[C@@]2(C)C3C(=O)CC[C@@]3(CC[C@H]2C)[C@@H](C)[C@@H]1O (stereo not given in full) | 0.0625 µg/mL (≈ 0.0926 µM) | 0.0625 µg/mL (≈ 0.0926 µM) | 0.0625 µg/mL (≈ 0.0926 µM) | < 0.0312 µg/mL | 0.125 µg/mL (≈ 0.185 µM) | >4 | >4 | 0.125 µg/mL (≈ 0.185 µM) | 4 | 
C=C[C@]1(C)C[C@@H](OC(=O)CSc2nc(N)nc3c2ncn3C(=O)c2ccc(OC)cc2)[C@@]2(C)C3C(=O)CC[C@@]3(CC[C@H]2C)[C@@H](C)[C@@H]1O (stereo not given in full) | 0.5 µg/mL (≈ 0.755 µM) | 0.125 µg/mL (≈ 0.189 µM) | 0.25 µg/mL (≈ 0.378 µM) | < 0.0078 µg/mL | 0.25 µg/mL (≈ 0.378 µM) | >4 | >4 | 0.5 µg/mL (≈ 0.755 µM) |  | 4
C=C[C@]1(C)C[C@@H](OC(=O)CSc2nc(N)nc3c2ncn3C(=O)NCc2ccc(OC)cc2)[C@@]2(C)C3C(=O)CC[C@@]3(CC[C@H]2C)[C@@H](C)[C@@H]1O (stereo not given in full) | 0.0625 µg/mL (≈ 0.0905 µM) | 0.0625 µg/mL (≈ 0.0905 µM) | 0.0312 µg/mL (≈ 0.0452 µM) | < 0.0312 µg/mL | 0.125 µg/mL (≈ 0.181 µM) | >4 | >4 | 0.0625 µg/mL (≈ 0.0905 µM) |  | 
C=C[C@]1(C)C[C@@H](OC(=O)CSc2nc(N)nc3c2ncn3C(=O)NCc2ccc([N+](=O)[O-])cc2)[C@@]2(C)C3C(=O)CC[C@@]3(CC[C@H]2C)[C@@H](C)[C@@H]1O (stereo not given in full) | 0.25 µg/mL (≈ 0.354 µM) | 0.25 µg/mL (≈ 0.354 µM) | 0.0625 µg/mL (≈ 0.0885 µM) | < 0.0078 µg/mL | 0.125 µg/mL (≈ 0.177 µM) | >4 | >4 | 0.0625 µg/mL (≈ 0.0885 µM) |  | 
C=C[C@]1(C)C[C@@H](OC(=O)CSc2nc(N)nc3c2ncn3C(=O)Nc2cccc(F)c2)[C@@]2(C)C3C(=O)CC[C@@]3(CC[C@H]2C)[C@@H](C)[C@@H]1O (stereo not given in full) | 0.25 µg/mL (≈ 0.376 µM) | 0.25 µg/mL (≈ 0.376 µM) | 0.125 µg/mL (≈ 0.188 µM) | 0.0156 µg/mL (≈ 0.0235 µM) | 0.25 µg/mL (≈ 0.376 µM) | >4 | >4 | 0.0625 µg/mL (≈ 0.094 µM) |  | 
C=C[C@]1(C)C[C@@H](OC(=O)CSc2nc(N)nc3c2ncn3C(=O)OC)[C@@]2(C)C3C(=O)CC[C@@]3(CC[C@H]2C)[C@@H](C)[C@@H]1O (stereo not given in full) | 0.125 µg/mL (≈ 0.213 µM) | 0.125 µg/mL (≈ 0.213 µM) | 0.125 µg/mL (≈ 0.213 µM) | 0.0625 µg/mL (≈ 0.107 µM) | 0.125 µg/mL (≈ 0.213 µM) | >4 | >4 | 0.5 µg/mL (≈ 0.854 µM) |  | 
C=C[C@]1(C)C[C@@H](OC(=O)CSc2nc(N)nc3c2ncn3C(=O)Nc2ccccc2Cl)[C@@]2(C)C3C(=O)CC[C@@]3(CC[C@H]2C)[C@@H](C)[C@@H]1O (stereo not given in full) | 0.125 µg/mL (≈ 0.183 µM) | 0.125 µg/mL (≈ 0.183 µM) | 0.0625 µg/mL (≈ 0.0917 µM) | 0.0078 µg/mL (≈ 0.0114 µM) | 0.125 µg/mL (≈ 0.183 µM) | >4 | >4 | 0.25 µg/mL (≈ 0.367 µM) | 4 | 
C=C[C@]1(C)C[C@@H](OC(=O)CSc2nc(N)nc3c2ncn3C(=O)NCc2ccccc2)[C@@]2(C)C3C(=O)CC[C@@]3(CC[C@H]2C)[C@@H](C)[C@@H]1O (stereo not given in full) | 0.0312 µg/mL (≈ 0.0473 µM) | 0.0625 µg/mL (≈ 0.0946 µM) | 0.0625 µg/mL (≈ 0.0946 µM) | < 0.0078 µg/mL | 0.0312 µg/mL (≈ 0.0473 µM) | >4 | >4 | 0.0625 µg/mL (≈ 0.0946 µM) |  | 
C=C[C@]1(C)C[C@@H](OC(=O)CSc2nc(NC(=O)CN3CCNCC3)nc3[nH]cnc23)[C@@]2(C)C3C(=O)CC[C@@]3(CC[C@H]2C)[C@@H](C)[C@@H]1O (stereo not given in full) | 32 µg/mL (≈ 48.9 µM) | 64 µg/mL (≈ 97.9 µM) | 16 µg/mL (≈ 24.5 µM) | 4 µg/mL (≈ 6.12 µM) | 32 µg/mL (≈ 48.9 µM) | >4 | >4 | 32 µg/mL (≈ 48.9 µM) |  | 
C=C[C@]1(C)C[C@@H](OC(=O)CSc2nc(N)nc3c2ncn3C(=O)CCc2ccccc2)[C@@]2(C)C3C(=O)CC[C@@]3(CC[C@H]2C)[C@@H](C)[C@@H]1O (stereo not given in full) | 0.125 µg/mL (≈ 0.189 µM) | 0.125 µg/mL (≈ 0.189 µM) | 0.125 µg/mL (≈ 0.189 µM) | 0.0156 µg/mL (≈ 0.0236 µM) | 0.25 µg/mL (≈ 0.379 µM) | >4 | 4 | 0.125 µg/mL (≈ 0.189 µM) | >4 | 
